The values below come from patent publication US9006139B2, “Active compound combinations” (Bayer Intellectual Property GmbH, priority 2009, dated 2015).

Common to all, as to type: in vivo
The test system of one assay is Phytophthora infestans. As to the kind of experiment: whole plant or invertebrate. To be noted: Phytophthora infestans, 72 h; for pest or weed control at 1 ppm: read-out: Efficacy in % found, Table A, test 1, 1 ppm a.i.
The next assay concerns Leptosphaeria nodorum. As to the kind of experiment: Leptosphaeria nodorum test (wheat)/preventive. The following applies: Parastagonospora nodorum, 192 h, Table K, read-out: Efficacy in % found; for pest or weed control at 500 ppm: 500 ppm a.i.; for pest or weed control at 125 ppm: 125 ppm a.i.; for pest or weed control at 62.5 ppm: 62.5 ppm a.i. On the procedure:
(§1) Solvent: 49 parts by weight of n,n-dimethylacetamid
(§2) Emulsifier: 1 part by weight of alkylaryl polyglycol ether
(§3) To produce a suitable preparation of active compound, 1 part by weight of active compound or active compound combination is mixed with the stated amounts of solvent and emulsifier, and the concentrate is diluted with water to the desired concentration. To test for preventive activity, young plants are sprayed with the preparation of active compound or active compound combination at the stated rate of application. After the spray coating has been dried, the plants are sprayed with a spore suspension of Leptosphaeria nodorum. The plants remain for 48 hours in an incubation cabinet at approximately 20° C. and a relative atmospheric humidity of approximately 100%. The plants are placed in the greenhouse at a temperature of approximately 22° C. and a relative atmospheric humidity of approximately 80%. The test is evaluated 8 days after the inoculation. 0% means an efficacy which corresponds to that of the untreated control, while an efficacy of 100% means that no disease is observed.

For a further assay, the system named is Alternaria solani. As to the kind of experiment: Alternaria test (tomatoes)/protective. The following applies: Alternaria solani, 72 h, Table E, read-out: Efficacy in % found; for pest or weed control at 2 ppm: 2 ppm a.i.; for pest or weed control at 0.5 ppm: 0.5 ppm a.i. The protocol:
(§4) Solvent: 24.5 parts by weight of acetone
(§5) • 24.5 parts by weight of dimethylacetamide Emulsifier: 1 part by weight of alkylaryl polyglycol ether
(§6) To produce a suitable preparation of active compound, 1 part by weight of active compound is mixed with the stated amounts of solvent and emulsifier, and the concentrate is diluted with water to the desired concentration. To test for protective activity, young plants are sprayed with the preparation of active compound at the stated rate of application. After the spray coating has dried on, the plants are inoculated with an aqueous spore suspension of Alternaria solani. The plants are then placed in an incubation cabinet at approximately 20° C. and a relative atmospheric humidity of 100%. The test is evaluated 3 days after the inoculation. 0% means an efficacy which corresponds to that of the control while an efficacy of 100% means that no disease is observed.

The next assay relates to Venturia inaequalis. As to the kind of experiment: Venturia test (apples)/protective. To be noted: Table D. On the procedure:
as §4, §5
as §6, with “conidia” for “spore”, “the causal agent of apple scab (Venturia inaequalis) and” for “Alternaria solani. The plants are”, “remain for 1 day” for “placed”, “The plants are then placed in a greenhouse at approximately 21° C. and a relative atmospheric humidity of approximately 90%. The” for “The”, “10” for “3”, “control,” for “control”

The next assay has as its system Botrytis cinerea. In words: Botrytis test (beans)/protective. The following applies: Table F; for pest or weed control at 25 ppm / Efficacy in % found: test 1. The protocol: as §4, §5
To produce a suitable preparation of active compound, 1 part by weight of active compound is mixed with the stated amounts of solvent and emulsifier, and the concentrate is diluted with water to the desired concentration. To test for protective activity, young plants are sprayed with the preparation of active compound. After the spray coating has dried on, 2 small pieces of agar covered with growth of Botrytis cinerea are placed on each leaf. The inoculated plants are placed in a darkened chamber at 20° C. and a relative atmospheric humidity of 100%. 2 days after the inoculation, the size of the lesions on the leaves is evaluated. 0% means an efficacy which corresponds to that of the control, while an efficacy of 100% means that no disease is observed.

The next assay relates to Sphaerotheca fuliginea. In words: Sphaerotheca test (cucumbers)/protective. The following applies: Podosphaera fuliginea, 168 h, Table C, read-out: Efficacy in % found. The protocol:
as §4, §5
To produce a suitable preparation of active compound, 1 part by weight of active compound is mixed with the stated amounts of solvent and emulsifier, and the concentrate is diluted with water to the desired concentration. To test for protect activity, young plants are sprayed with the preparation of active compound at the stated rate of application. After the spray coating has dried on, the plants are inoculated with an aqueous spore suspension of Sphaerotheca fuliginea. The plants are then placed in a greenhouse at approximately 23° C. and a relative atmospheric humidity of approximately 70%. The test is evaluated 7 days after the inoculation. 0% means an efficacy which corresponds to that of the control, while an efficacy of 100% means that no disease is observed.

The next assay deals with Septoria tritici. As to the kind of experiment: Septoria tritici-test (wheat)/preventive. To be noted: Table H; 62.5 ppm a.i. On the procedure: as §1, §2
as §3, with “suspension of Septoria tritici. The plants” for “suspension of Leptosphaeria nodorum. The plants”, “of approximately 100% and afterwards for 60 hours at approximately 15° C. in a translucent incubation cabinet at a relative atmospheric humidity of approximately 100%. The” for “of approximately 100%. The”, “of approximately 15° C. and” for “of approximately 22° C. and”, “is evaluated 21 days after” for “is evaluated 8 days after”

The subject of a further assay is Pyrenophora teres. In words: Pyrenophora teres-test (barley)/preventive. On the procedure: as §1, §2
as §3, with “Pyrenophora teres.” for “Leptosphaeria nodorum.”, “20°” for “22°”

[1] abbreviates: Botrytis cinerea, 48 h, 25 ppm a.i., read-out: Efficacy in % found.

In the case of `C[C@@]1(c2ccc(Oc3ccccc3)cc2)OC(=O)N(Nc2ccccc2)C1=O` (racemic) [(3.6), famoxadone], the pest or weed control at 2.5 ppm in the assay with Phytophthora infestans (read-out: Efficacy in % found, Table A, test 7, 2.5 ppm a.i.) stood at 31%. For the same compound, the pest or weed control at 500 ppm in the assay on Leptosphaeria nodorum was determined as 67%.
With `CC1(C(=O)Nc2ccc(O)c(Cl)c2Cl)CCCCC1` [(1.16), fenhexamid], the pest or weed control at 12.5 ppm in the assay on Alternaria solani (test 1, 12.5 ppm a.i.) is 0%. For the same compound, in the assay with Venturia inaequalis (test 1, 12.5 ppm a.i.), the “Efficacy in % found” value was found to be 0%.
On to `OC(Cc1ccccc1Cl)(Cn1nc[nH]c1=S)C1(Cl)CC1` (stereo not shown) [(1.41), prothioconazole], for which the pest or weed control at 25 ppm in the assay on Botrytis cinerea (setting [1]) turned out to be 49%. Also, in the assay on Alternaria solani (test 1), the pest or weed control at 2 ppm worked out at 30%. Moreover, the pest or weed control at 0.5 ppm with Sphaerotheca fuliginea (test 1, 0.5 ppm a.i.) turned out to be 37%. Further, the pest or weed control at 125 ppm in the assay with Leptosphaeria nodorum was 88%.
With `CC(C)(C)C(O)(CCc1ccc(Cl)cc1)Cn1cncn1` (stereo not shown) [(1.47), tebuconazole], the pest or weed control at 25 ppm with Botrytis cinerea (setting [1]) turned out to be 4%. Also, the pest or weed control at 2 ppm in the assay with Alternaria solani (test 1) was 35%; with Sphaerotheca fuliginea (test 1, 2 ppm a.i.), 50%. Moreover, the pest or weed control at 125 ppm in the assay with Leptosphaeria nodorum is 88%.
Take `Cn1cc(C(=O)Nc2ccc(F)cc2-c2ccc(Cl)c(Cl)c2)c(C(F)F)n1` [(2.2), bixafen]: the “Efficacy in % found” value in the assay with Septoria tritici is 50%; in the assay on Venturia inaequalis (test 2, 0.5 ppm a.i.), 0%.
Regarding `O=C(Nc1ccccc1-c1ccc(Cl)cc1)c1cccnc1Cl` [(2.3), boscalid], the pest or weed control at 25 ppm with Botrytis cinerea (setting [1]) came to 50%. The “Efficacy in % found” value in the assay with Pyrenophora teres (Table I1, 62.5 ppm a.i.) was found to be 50%; in the assay with Venturia inaequalis (test 1, 5 ppm a.i.) it was 0%.
On to `O=C(NCCc1ncc(C(F)(F)F)cc1Cl)c1ccccc1C(F)(F)F` [(2.6), fluopyram], for which the “Efficacy in % found” value is listed as 90% in the assay with Septoria tritici and 0% in the assay on Venturia inaequalis (test 1, 1 ppm a.i.).
On to `CC(C)C1C2CCC1c1c(NC(=O)c3cn(C)nc3C(F)F)cccc12` (stereo not shown) [(2.10), isopyrazam], for which the “Efficacy in % found” value in the assay with Septoria tritici was 80%; with Venturia inaequalis (test 1, 1 ppm a.i.), 28%.
For the compound `Cc1nn(C)c(F)c1C(=O)Nc1ccccc1C(C)CC(C)C` (stereo not shown) [(2.19), penflufen], the “Efficacy in % found” value in the assay with Botrytis cinerea (50 ppm a.i.) was 65%; in the assay with Septoria tritici, 50%; in the assay with Venturia inaequalis (test 1, 1 ppm a.i.) it was 0%.
As for `Cn1cc(C(=O)Nc2ccccc2C2CC2C2CC2)c(C(F)F)n1` (stereo not shown) [(2.21), sedaxane], the “Efficacy in % found” value in the assay with Botrytis cinerea (25 ppm a.i.) came out at 30%; with Pyrenophora teres (Table I1, 125 ppm a.i.), 50%; in the assay with Venturia inaequalis (test 1, 1 ppm a.i.), 24%.
With `Cn1cc(C(=O)Nc2ccccc2-c2ccccc2C(F)(F)F)c(C(F)(F)F)n1` [(2.26), 1-methyl-3-(trifluoromethyl)-N-[2′-(trifluoromethyl)biphenyl-2-yl]-1H-pyrazole-4-carboxamide], the pest or weed control at 25 ppm in the assay on Botrytis cinerea (setting [1]) turned out to be 89%. The “Efficacy in % found” value with Venturia inaequalis (test 1, 1 ppm a.i.) turned out to be 54%.
`CO/N=C(/C1=NOCCO1)c1ccccc1Oc1ncnc(Oc2ccccc2Cl)c1F` [(3.8), fluoxastrobin]: in the assay on Botrytis cinerea (setting [1]), the pest or weed control at 25 ppm came out at 8%. In the assay with Alternaria solani (test 1), the pest or weed control at 0.5 ppm is 40%. In addition, the pest or weed control at 1 ppm in the assay on Phytophthora infestans turned out to be 30%. Also, the pest or weed control at 62.5 ppm with Leptosphaeria nodorum amounted to 63%.
On to `CO/N=C(/C(=O)OC)c1ccccc1COc1ccccc1C` [(3.9), kresoxim-methyl], for which the pest or weed control at 2.5 ppm in the assay on Botrytis cinerea (Botrytis cinerea, 48 h, test 3, 2.5 ppm a.i., read-out: Efficacy in % found) turned out to be 75%; in the assay on Alternaria solani (test 2, 2.5 ppm a.i.), 50%. Moreover, in the assay with Pyrenophora teres (Table I2, 62.5 ppm a.i.), the “Efficacy in % found” value came to 67%. Besides, the pest or weed control at 5 ppm with Sphaerotheca fuliginea (test 4, 5 ppm a.i.) is 52%.
On to `COC(=O)N(OC)c1ccccc1COc1ccn(-c2ccc(Cl)cc2)n1` [(3.13), pyraclostrobin], for which the pest or weed control at 25 ppm in the assay with Botrytis cinerea (setting [1]) came to 63%. Also, in the assay with Alternaria solani (test 1), the pest or weed control at 0.5 ppm was determined as 50%. For the same compound, the pest or weed control at 1 ppm in the assay with Phytophthora infestans worked out at 58%. The pest or weed control at 62.5 ppm in the assay with Leptosphaeria nodorum came to 88%. The “Efficacy in % found” value in the assay on Venturia inaequalis (test 1, 0.5 ppm a.i.) is reported as 38%.
As for `CON=C(C(=O)OC)c1ccccc1CON=C(C)c1cccc(C(F)(F)F)c1` [(3.17), trifloxystrobin], the pest or weed control at 25 ppm in the assay with Botrytis cinerea (setting [1]) was found to be 40%. Besides, the pest or weed control at 0.5 ppm in the assay with Alternaria solani (test 1) turned out to be 30%. Moreover, the “Efficacy in % found” value in the assay on Venturia inaequalis (test 1, 0.5 ppm a.i.) came to 8%.
As to `CN(C)C(=S)SSC(=S)N(C)C` [(5.25), thiram], in the assay on Leptosphaeria nodorum, the pest or weed control at 500 ppm is 33%.
For `Cc1cc(C2CC2)nc(Nc2ccccc2)n1` [(7.3), cyprodinyl], the pest or weed control at 10 ppm in the assay on Botrytis cinerea (Botrytis cinerea, 48 h, test 2, 10 ppm a.i., read-out: Efficacy in % found) stood at 0%. In addition, in the assay on Pyrenophora teres (Table I1, 125 ppm a.i.), the “Efficacy in % found” value stood at 67%.
As for `O=[N+]([O-])c1cc(C(F)(F)F)c(Cl)c([N+](=O)[O-])c1Nc1ncc(C(F)(F)F)cc1Cl` [(14.2), fluazinam], the pest or weed control at 500 ppm in the assay on Leptosphaeria nodorum is 89%.
